Each structure is given as a SMILES string. Structures can show the parent of a compound that is named as a salt. Where two headings read alike, the source gives them in different places.

For assay [1], the target named is T1, CDK9/CycT1 (Homo sapiens (Human), UniProt P50750). Kind of assay: CDK9 kinase assay, high ATP concentration (5 mM ATP). Type of assay: biochemical. As to conditions: 1.5 nM CDK9, read-out: CDK9 High ATP conc. (IC50). As for the experimental part:
(§1) Activity of CDK9 was determined in-vitro using a mobility shift assay on a Caliper LC3000 reader (Caliper/PerkinElmer), which measures fluorescence of a phosphorylated and unphosphorylated fluorescent peptide substrate and calculates a ratiometric value to determine percent turnover. Phosphorylation of the peptide in the presence and absence of the compound of interest was determined. Enzyme/substrate/adenosine triphosphate (ATP) mix (3 nM CDK9/CycT1, 6 μM ATP, 1.5 μM CDK9 peptide substrate (FITC-X-GSRTPMY-NH2 (X: epsilon aminocaproic acid)), 50 mM HEPES (pH7.2), 1 mM dithiothreitol, 0.01% tween 20, 50 μg/mL bovine serum albumin, (final assay concentration)) (5 μl) was preincubated with 2 μl of compound for 15 minutes at 25° C. Reactions were initiated with 5 μl of 24 mM MgCl2 (10 mM final assay concentration) in buffer (50 mM HEPES (pH7.2), 1 mM dithiothreitol, 0.01% tween 20, 50 μg/mL bovine serum albumin, (final assay concentration) and incubated at 25° C. for 90 minutes and reactions were stopped by addition of 5 μl of Stop mix consisting of 65 mM HEPES (pH7.2), 35.5 mM EDTA, 0.227% Coatin Reagent 3 (Caliper/PerkinElmer), and 0.003% Tween. Phosphorylated and unphosphorylated substrate was detected by a Caliper LC3000 reader (Caliper/PerkinElmer) in the presence of separation buffer consisting of 100 mM HEPES (pH7.2), 15.8 mM EDTA, 0.1% Coatin Reagent 3 (Caliper/PerkinElmer), 0.015% Brij-35, 5% DMSO, and 5.6 mM MgCl2. CDK9 enzyme was acquired from Carna Biosciences (Catalogue number 04-110), the CDK9 peptide substrate was acquired from Intonation (Boston, Mass.; Custom-made).
High ATP assays were run the same way with the following modifications: the final assay concentration of CDK9 was 1.5 nM and the final assay concentration of ATP was 5 mM.

For assay [2], the target named is T1, CDK9/CycT1. Kind of assay: CDK9 kinase assay, ATP concentration at Km (mobility shift, Caliper LC3000). As to conditions: 6 μM ATP, 3 nM CDK9/CycT1; read-out: CDK9 ATP conc. at Km (IC50). The assay is classed as biochemical. As for the experimental part: as §1
Assay [3] has as its system phosphorylation of RNA Polymerase II (RNAPII) at the Ser2 site in MCF7 cells. The assay is described as follows: MCF7 pSer2 RNAPII MOA assay (immunofluorescence). The conditions noted are these: 6-hr treatment, read-out: p-Ser 2 RNAPII (IC50). The assay is classed as cell-based. Here is the method: MCF7 pSer2 RNAPII MOA Assay
This is an immunofluorescence assay to determine the effect of CDK9 inhibitors on phosphorylation of RNA Polymerase II (RNAPII) at the Ser2 site in the breast cancer cell line, MCF7. On day one, 2500 MCF7 cells/well were seeded in 30 μl of growth media (RPMI+10% FBS+1% L-Glu+P/S) in 384-well black-wall clear-bottom plates, incubate plates overnight at 37° C. incubator. On the second day, the cells were treated with CDK9 inhibitors (7 point dose response ranging from 3 μM to 0.004 μM) using an ECHO liquid handler (Labcyte). After 6-hr treatment at 37° C. incubator, the cells were fixed with 30 µl/well 7.4% paraformaldehyde for 15 min at room temperature; the cells were washed twice with PBS, then permeabilized with 0.3% Triton X/PBS for 5 min at room temperature. After washing cells with PBS, the cells were incubated with 1:2000 diluted Anti-Ser2 Phospho-RNA pol II antibody (Covance MMS-129R) in 3% FBS/0.1% PBST overnight at 4° C. On the next day, the cells were washed twice with 0.1% PBST, then incubated with 1:1000 diluted Alexa Fluor 488 Goat-anti-mouse antibody (Life Technologies A-11001) and 1:4000 diluted DAPI at room temperature in dark. After one hour incubation, the cells were washed twice with 0.1% PBST, and once with PBS. The plates where sealed and read on an Acumen eX3 microplate cytometer (TTP Labtech) to assess phosphorylation level in each well.

Assay [4] concerns MV411 cells. Kind of assay: MV411 caspase activity assay (Caspase-Glo 3/7). The conditions noted are these: Homo sapiens, MV4-11, 6 h, 6-hr treatment, caspase 3/7 induction. Type of assay: cell-based. As for the experimental part:
MV411 Caspase Activity Assay
This is a cell assay to measure the induction of caspase activity in the acute myeloid leukemia cell line, MV411 after 6-hr treatment with CDK9 inhibitors. On the first day, 3000 MV411 cells/well were seeded in 50 μl of growth media (IMDM+10% FBS+2% L-Glu+P/S) in 384-well white plates, incubate plates in 37° C. incubator overnight. […] After 6 hour incubation in 37° C. incubator, 25 μl of Caspase-Glo 3/7 reagent (Promega) per well was added into each well, and plates were incubated at room temperature for 30 min in dark. The plates were read on an Infinite M200 microplate reader (Tecan) with a 100 ms integration time.

T1 sequence (P50750 whole entry): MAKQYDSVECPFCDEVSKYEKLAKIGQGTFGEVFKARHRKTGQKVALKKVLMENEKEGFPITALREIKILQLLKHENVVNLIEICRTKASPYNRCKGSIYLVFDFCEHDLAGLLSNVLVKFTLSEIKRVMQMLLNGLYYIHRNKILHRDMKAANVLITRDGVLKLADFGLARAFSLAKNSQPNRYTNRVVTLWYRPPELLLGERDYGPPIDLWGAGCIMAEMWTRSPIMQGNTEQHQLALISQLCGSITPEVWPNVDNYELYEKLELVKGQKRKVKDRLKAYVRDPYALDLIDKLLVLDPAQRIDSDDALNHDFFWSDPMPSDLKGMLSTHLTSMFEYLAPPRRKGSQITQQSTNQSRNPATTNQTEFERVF
T1 sequence (O60563 whole entry partner): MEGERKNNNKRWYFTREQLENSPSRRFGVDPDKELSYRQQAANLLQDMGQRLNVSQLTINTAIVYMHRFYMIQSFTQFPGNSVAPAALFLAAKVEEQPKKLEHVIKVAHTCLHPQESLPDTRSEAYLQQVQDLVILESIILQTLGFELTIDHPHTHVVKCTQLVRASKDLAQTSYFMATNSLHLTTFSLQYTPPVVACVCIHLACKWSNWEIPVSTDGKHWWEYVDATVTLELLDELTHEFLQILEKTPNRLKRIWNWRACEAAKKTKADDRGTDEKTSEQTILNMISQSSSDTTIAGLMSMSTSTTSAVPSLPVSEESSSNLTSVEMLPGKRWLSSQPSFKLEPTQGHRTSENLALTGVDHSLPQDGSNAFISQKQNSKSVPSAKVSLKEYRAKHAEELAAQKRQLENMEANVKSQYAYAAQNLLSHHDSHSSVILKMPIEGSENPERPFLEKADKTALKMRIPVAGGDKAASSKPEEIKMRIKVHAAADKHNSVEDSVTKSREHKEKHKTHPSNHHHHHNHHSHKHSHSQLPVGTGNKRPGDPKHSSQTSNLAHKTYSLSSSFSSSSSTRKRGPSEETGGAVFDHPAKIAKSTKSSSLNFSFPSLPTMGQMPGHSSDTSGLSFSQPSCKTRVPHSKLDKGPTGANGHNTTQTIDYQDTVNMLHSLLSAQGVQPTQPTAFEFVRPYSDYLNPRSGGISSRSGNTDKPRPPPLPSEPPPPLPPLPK

In the case of `CC(=O)N[C@@H]1CCC[C@H](C(=O)Nc2cc(-c3cnn4c3CC(C)C4)c(Cl)cn2)C1` (single isomer, unassigned) [Example 41], the half-inhibitory concentration (IC50) (usually the midpoint of a concentration-inhibition curve) in assay [1] was 0.027 µM; in assay [2] it was less than 0.003 µM; in assay [3], 0.076 µM.
With `CC(=O)N[C@H]1CCC[C@H](C(=O)Nc2cc(-c3cnn4c3CC(C)(C)C4)c(Cl)cn2)C1` (single isomer, unassigned) [Example 59, trans-3-acetamido-N-(5-chloro-4-(5,5-dimethyl-5,6-dihydro-4H-pyrrolo[1,2-b]pyrazol-3-yl)pyridin-2-yl)cyclohexanecarboxamide], the IC50 in assay [3] is more than 2.44 µM.
For the molecule `CC(=O)N[C@H]1CCC[C@H](C(=O)Nc2cc(-c3cnn4c3CCCC4)c(Cl)cn2)C1` (single isomer, unassigned) [Example 61, trans-3-acetamido-N-(5-chloro-4-(4,5,6,7-tetrahydropyrazolo[1,5-a]pyridin-3-yl)pyridin-2-yl)cyclohexanecarboxamide], in assay [3], the IC50 was more than 3 µM.
As to `CC(=O)N[C@H]1CCC[C@H](C(=O)Nc2cc(-c3cnn4c3CCCC4)c(Cl)cn2)C1` (single isomer, unassigned) [Example 62, trans-3-acetamido-N-(5-chloro-4-(4,5,6,7-tetrahydropyrazolo[1,5-a]pyridin-3-yl)pyridin-2-yl)cyclohexanecarboxamide], in assay [3], the IC50 was 0.333 µM.
Regarding `CC(=O)N[C@@H]1CCC[C@H](C(=O)Nc2cc(-c3cnn4c3CC(C)CC4)c(Cl)cn2)C1` (single isomer, unassigned) [Example 65], the IC50 in assay [1] was less than 0.004 µM; in assay [2] it was less than 0.003 µM; in assay [3], 0.037 µM.
As to `CC(=O)N[C@@H]1CCC[C@H](C(=O)Nc2cc(-c3cnn4c3CCC(C)C4)c(Cl)cn2)C1` (single isomer, unassigned) [Example 68], the IC50 in assay [1] was 0.053 µM; in assay [2] it was less than 0.003 µM; in assay [3] (Homo sapiens, MCF7, 6 h) it was 0.131 µM.
In the case of `CC(=O)N[C@@H]1CCC[C@H](C(=O)Nc2cc(-c3cnn4c3CCC(C)C4)c(Cl)cn2)C1` (single isomer, unassigned) [Example 69], the IC50 in assay [1] was found to be 0.246 µM; in assay [2], 0.005 µM; in assay [3], 0.193 µM.
The matching figures for `COC1CCc2c(-c3cc(NC(=O)[C@H]4CCC[C@@H](NC(C)=O)C4)ncc3Cl)cnn2C1` (single isomer, unassigned) [Example 70]: 0.02 µM, less than 0.003 µM and 0.073 µM.
The matching figures for `COC1CCc2c(-c3cc(NC(=O)[C@H]4CCC[C@@H](NC(C)=O)C4)ncc3Cl)cnn2C1` (single isomer, unassigned) [Example 71]: 1.72 µM, 0.016 µM and more than 2.35 µM.
On to `COC1CCn2ncc(-c3cc(NC(=O)[C@H]4CCC[C@@H](NC(C)=O)C4)ncc3Cl)c2C1` (single isomer, unassigned) [Example 73], for which the IC50 was 0.039 µM in assay [1], less than 0.003 µM in assay [2] and 0.218 µM in assay [3].
Turning to `CC(=O)N[C@@H]1CCC[C@H](C(=O)Nc2cc(-c3cnn4c3C(O)C(C)(C)C4)c(Cl)cn2)C1` (single isomer, unassigned) [Example 79], the IC50 in assay [1] was less than 0.003 µM; in assay [2] it was less than 0.003 µM; in assay [3] it was 0.01 µM.
With `CC(=O)N[C@@H]1CCC[C@H](C(=O)Nc2cc(-c3cnn4c3C(O)C(C)(C)C4)c(Cl)cn2)C1` (single isomer, unassigned) [Example 80], the IC50 was found to be 0.135 µM in assay [1], 0.004 µM in assay [2] and 0.247 µM in assay [3].
With `CC(=O)N[C@@H]1CCC[C@H](C(=O)Nc2cc(-c3cnn4c3CCCC4)c(Cl)cn2)C1` [Example 2, (1S,3R)-3-acetamido-N-(5-chloro-4-(4,5,6,7-tetrahydropyrazolo[1,5-a]pyridin-3-yl)pyridin-2-yl)cyclohexanecarboxamide], the concentration for half-maximal inhibition (IC50) worked out at 0.12 µM in assay [4] and 0.13 µM in assay [3] (Homo sapiens, MCF7, 6 h).
Turning to `CC(=O)N[C@H]1CCC[C@@H](C(=O)Nc2cc(-c3cnn4c3CCCC4)c(Cl)cn2)C1` [Example 9, (1R,3S)-3-acetamido-N-(5-chloro-4-(4,5,6,7-tetrahydropyrazolo[1,5-a]pyridin-3-yl)pyridin-2-yl)cyclohexanecarboxamide], the IC50 in assay [4] was 4.09 µM; in assay [3] (Homo sapiens, MCF7, 6 h), more than 3 µM.
The matching figures for `CC(=O)N[C@@H]1CCC[C@H](C(=O)Nc2cc(-c3cnn4c3CC(C)(C)C4)c(Cl)cn2)C1` [Example 14, (1S,3R)-3-acetamido-N-(5-chloro-4-(5,5-dimethyl-5,6-dihydro-4H-pyrrolo[1,2-b]pyrazol-3-yl)pyridin-2-yl)cyclohexanecarboxamide]: 0.014 µM and 0.023 µM.
The matching figures for `CC(=O)N[C@@H]1CCC[C@H](C(=O)Nc2cc(-c3cnc4n3CC(C)(C)C4)c(Cl)cn2)C1` [Example 22, (1S,3R)-3-acetamido-N-(5-chloro-4-(6,6-dimethyl-6,7-dihydro-5H-pyrrolo[1,2-a]imidazol-3-yl)pyridin-2-yl)cyclohexanecarboxamide]: 0.054 µM and 0.036 µM.
As to `N[C@@H]1CCC[C@H](C(=O)Nc2cc(-c3cnn4c3CCCC4)c(Cl)cn2)C1` [Example 31b, (1S,3R)-3-amino-N-(5-chloro-4-(4,5,6,7-tetrahydropyrazolo[1,5-a]pyridin-3-yl)pyridin-2-yl)cyclohexanecarboxamide dihydrochloride], the concentration for half-maximal inhibition (IC50) in assay [1] was 2.65 µM; in assay [2], 0.036 µM; in assay [3] (Homo sapiens, MCF7, 6 h) it was 1.8 µM.
Consider `CC(=O)N[C@H]1CCC[C@@H](C(=O)Nc2cc(-c3cnn4c3CC(C)(C)C4)c(Cl)cn2)C1` [Example 43, (1R,3S)-3-acetamido-N-(5-chloro-4-(5,5-dimethyl-5,6-dihydro-4H-pyrrolo[1,2-b]pyrazol-3-yl)pyridin-2-yl)cyclohexanecarboxamide], for which the IC50 in assay [4] was 0.416 µM; in assay [3] (Homo sapiens, MCF7, 6 h), 0.307 µM.
Consider `CC(=O)N[C@@H]1CCC[C@H](C(=O)Nc2cc(-c3cnn4c3CC(C)(C)C4)c(C)cn2)C1` [Example 47, (1S,3R)-3-acetamido-N-(4-(5,5-dimethyl-5,6-dihydro-4H-pyrrolo[1,2-b]pyrazol-3-yl)-5-methylpyridin-2-yl)cyclohexanecarboxamide], for which the IC50 amounted to 0.074 µM in assay [4] and 0.04 µM in assay [3] (Homo sapiens, MCF7, 6 h).
With `CC1(C)Cc2c(-c3cc(NC(=O)[C@H]4CCC[C@@H](NC(=O)CCO)C4)ncc3Cl)cnn2C1` [Example 52, (1S,3R)—N-(5-chloro-4-(5,5-dimethyl-5,6-dihydro-4H-pyrrolo[1,2-b]pyrazol-3-yl)pyridin-2-yl)-3-(3-hydroxypropanamido)cyclohexanecarboxamide], the IC50 was 0.004 µM in assay [1] and less than 0.003 µM in assay [2].

Values taken from patent US10717746B2, “Chemical compounds” (ASTRAZENECA AB, priority 2015, dated 2020).
